SMILES strings stand for the structures. Like-named read-outs stand apart in the source and are kept apart here. Peptide text beside a SMILES is read from it.

The assay addresses ACE2 (Homo sapiens, UniProt Q9BYF1). As to the kind of experiment: ACE2 quenched fluorescence substrate (QFS) inhibition assay. The class given is biochemical. The method, then: Angiotensin converting enzyme 2 QFS assays were performed for 1 h in 50 uM QFS, 1 M NaCl, 100 mM Tris-Cl, pH 6.5 at 37∘C on a BMG LabTechnologies (Offenburg, Germany), FLUOStar Optima in a 96 well-plate. Subsequent data analysis determined the inhibition of native AngII, its analogs and C-terminal peptides compared to the ACE2 QFS substrate [MCA-APK(DNP)-OH, [Vickers et al., 2002]]. […] Three controls were included in each ACE2 QFS assay; AngII (100 and 10 μM), IHPF (100 μM) and a known ACE2 inhibitor (1 nM; Millennium Pharmaceuticals, Cambridge, MA, USA). QFS assay results were accepted when ACE2 inhibition by AngII (10 μM) was 80 ± 5%, IHPF was 65 ± –5% and the ([Qian et al., 1999]) ‘Millennium Inhibitor’ was 70 ± –5%. Acceptable coefficients of variation (CV; standard deviation/mean × 100) for sample triplicates were <7%.
A library of 40 tetrapeptides based on the four C-terminal residues of Ang II (Ile-His-Pro-Phe/IHPF) was generated and screened for ACE2 binding at 100 μM in order to identify key residues of the C-terminus of Ang II involved in binding to the ACE2 active site. […] Several substitutions (Val, Tyr, Ala, Gly, Phe, Trp, Pro, His, Ile, and Leu) were made in order to further probe the highly hydrophobic and cyclic specificity of the C-terminus of Ang II. A β-napthalene amino acid (Nth) derivative was used as a highly hydrophobic non-natural cyclic residue substitute, and Arg and Lys were substituted for histidine at the second position from the N-terminus of the tetrapeptide to determine if positive charge or other structural or positional requirements were important.

The mark [1] stands for this setting: peptide 100 μM, 50 uM QFS MCA-APK(DNP)-OH, 1 M NaCl, 100 mM Tris-Cl pH 6.5, 37 °C, 1 h, fluorescence, triplicate, read-out: ACE2 inhibition of single substitution analogs of the C-terminal of AngII (Table 1).
[2] abbreviates: read-out: ACE2 inhibition of terminally modified IHPF analogs, 10 μM (Table 3, in brackets), peptide 10 μM, 50 uM QFS, 1 M NaCl, 100 mM Tris-Cl pH 6.5, 37 °C, 1 h.
[3] abbreviates: read-out: ACE2 inhibition of terminally modified IHPF analogs, 100 μM (Table 3), peptide 100 μM, 50 uM QFS, 1 M NaCl, 100 mM Tris-Cl pH 6.5, 37 °C, 1 h.
Setting [4] is: peptide 100 μM, 50 uM QFS, 1 M NaCl, 100 mM Tris-Cl pH 6.5, 37 °C, 1 h, triplicate, read-out: Inhibition (%) of ACE2, single and multiple residue substitution analogs (Table 2).
[5] abbreviates: pH 6.5, read-out: ACE2 inhibition of terminally modified IHPF analogs, 100 μM (Table 3).
The mark [6] stands for this setting: 1 h, pH 6.5, read-out: Inhibition (%) of ACE2, single and multiple residue substitution analogs (Table 2).

ACE2, sequence (Q9BYF1 18-805, species assumed): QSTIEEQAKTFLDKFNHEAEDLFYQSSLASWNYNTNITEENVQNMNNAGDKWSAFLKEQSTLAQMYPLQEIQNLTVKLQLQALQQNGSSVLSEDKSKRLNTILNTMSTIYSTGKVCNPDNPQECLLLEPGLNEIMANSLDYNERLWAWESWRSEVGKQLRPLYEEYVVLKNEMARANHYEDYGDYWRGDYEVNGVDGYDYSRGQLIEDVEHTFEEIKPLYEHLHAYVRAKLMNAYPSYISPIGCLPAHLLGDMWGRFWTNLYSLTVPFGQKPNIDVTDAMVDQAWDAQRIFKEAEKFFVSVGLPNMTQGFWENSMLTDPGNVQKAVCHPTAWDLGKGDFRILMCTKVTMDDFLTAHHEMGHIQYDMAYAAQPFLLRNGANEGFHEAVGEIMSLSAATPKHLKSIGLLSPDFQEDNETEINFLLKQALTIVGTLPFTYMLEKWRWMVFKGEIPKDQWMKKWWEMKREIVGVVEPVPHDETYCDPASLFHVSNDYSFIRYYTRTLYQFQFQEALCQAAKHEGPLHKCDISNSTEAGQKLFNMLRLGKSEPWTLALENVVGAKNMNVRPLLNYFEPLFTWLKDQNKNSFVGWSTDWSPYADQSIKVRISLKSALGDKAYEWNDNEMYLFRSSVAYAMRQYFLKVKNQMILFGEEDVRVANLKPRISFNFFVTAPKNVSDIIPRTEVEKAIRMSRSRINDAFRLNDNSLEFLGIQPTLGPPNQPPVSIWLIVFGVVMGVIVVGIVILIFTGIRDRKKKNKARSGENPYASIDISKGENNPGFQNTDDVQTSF

As for `CC[C@H](C)[C@H](N)C(=O)N[C@@H](Cc1ccc(O)cc1)C(=O)N1CCC[C@H]1C(=O)N[C@@H](Cc1ccccc1)C(=O)O` [IYPF] (H-IYPF-OH), the inhibition at 100 µM by setting is: under setting [1], 87%; under setting [3], 84%. The inhibition at 10 µM under setting [2] was determined as 35%.

With `CC[C@H](C)[C@H](N)C(=O)N[C@@H](Cc1ccc(O)cc1)C(=O)N[C@H](C(=O)N[C@@H](Cc1ccccc1)C(=O)O)C(C)C` [IYVF] (H-IYVF-OH), under setting [4], the inhibition at 100 µM was found to be 77%.

In the case of `CC[C@H](C)[C@H](NC(C)=O)C(=O)N[C@@H](Cc1c[nH]cn1)C(=O)N1CCC[C@H]1C(=O)N[C@@H](Cc1ccccc1)C(=O)O` [N-acetylated IHPF] (Ac-IHPF-OH), the inhibition at 10 µM under setting [2] is 41%. In addition, the inhibition at 100 µM under setting [3] is 87%.

With `CC[C@H](C)[C@H](NC(C)=O)C(=O)N[C@@H](Cc1ccc(O)cc1)C(=O)N1CCC[C@H]1C(=O)N[C@@H](Cc1ccccc1)C(=O)O` [N-acetylated IYPF] (Ac-IYPF-OH), the inhibition at 10 µM under setting [2] was found to be 62%. Moreover, under setting [3], the inhibition at 100 µM was determined as 93%.

With `CC(=O)N1CCC[C@H]1C(=O)N[C@@H](Cc1c[nH]cn1)C(=O)N1CCC[C@H]1C(=O)N[C@@H](Cc1ccccc1)C(=O)O` [N-acetylated PHPF] (Ac-PHPF-OH), the inhibition at 100 µM under setting [3] was 57%.

As to `CC(=O)N1CCC[C@H]1C(=O)N[C@@H](Cc1c[nH]cn1)C(=O)N[C@H](C(=O)N[C@@H](Cc1ccccc1)C(=O)O)C(C)C` [N-acetylated PHVF] (Ac-PHVF-OH), under setting [3], the inhibition at 100 µM is 8%.

Take `CC(=O)N1CCC[C@H]1C(=O)N[C@@H](Cc1ccc(O)cc1)C(=O)N1CCC[C@H]1C(=O)N[C@@H](Cc1ccccc1)C(=O)O` [N-acetylated PYPF] (Ac-PYPF-OH): the inhibition at 10 µM under setting [2] turned out to be 44%. Moreover, under setting [3], the inhibition at 100 µM was 87%.

Regarding `CC(=O)N1CCC[C@H]1C(=O)N[C@@H](Cc1ccc(O)cc1)C(=O)N[C@H](C(=O)N[C@@H](Cc1ccccc1)C(=O)O)C(C)C` [N-acetylated PYVF] (Ac-PYVF-OH), the inhibition at 10 µM under setting [2] worked out at 18%. For the same compound, under setting [3], the inhibition at 100 µM came out at 78%.

`CC(=O)N[C@H](C(=O)N[C@@H](Cc1c[nH]cn1)C(=O)N[C@H](C(=O)N[C@@H](Cc1ccccc1)C(=O)O)C(C)C)C(C)C` [N-acetylated VHVF] (Ac-VHVF-OH): the inhibition at 10 µM under setting [2] turned out to be 31%. Further, the inhibition at 100 µM under setting [3] is 76%.

As to `CC(=O)N[C@H](C(=O)N[C@@H](Cc1ccc(O)cc1)C(=O)N1CCC[C@H]1C(=O)N[C@@H](Cc1ccccc1)C(=O)O)C(C)C` [N-acetylated VYPF] (Ac-VYPF-OH), under setting [2], the inhibition at 10 µM amounted to 79%. Further, the inhibition at 100 µM under setting [3] was found to be 98%.

Turning to `CC[C@H](C)[C@H](NC(C)=O)C(=O)N[C@@H](Cc1c[nH]cn1)C(=O)N1CCC[C@H]1C(=O)N[C@@H](Cc1ccccc1)C(N)=O` [N-acetylated/C-amidated IHPF] (Ac-IHPF-NH2), the inhibition at 100 µM under setting [3] turned out to be 26%.

For the compound `CC[C@H](C)[C@H](NC(C)=O)C(=O)N[C@@H](Cc1ccc(O)cc1)C(=O)N1CCC[C@H]1C(=O)N[C@@H](Cc1ccccc1)C(N)=O` [N-acetylated/C-amidated IYPF] (Ac-IYPF-NH2), the inhibition at 100 µM under setting [3] is 18%.

For `CC(=O)N1CCC[C@H]1C(=O)N[C@@H](Cc1c[nH]cn1)C(=O)N1CCC[C@H]1C(=O)N[C@@H](Cc1ccccc1)C(N)=O` [N-acetylated/C-amidated PHPF] (Ac-PHPF-NH2), the inhibition at 100 µM under setting [3] stood at 8%.

Regarding `CC(=O)N1CCC[C@H]1C(=O)N[C@@H](Cc1c[nH]cn1)C(=O)N[C@H](C(=O)N[C@@H](Cc1ccccc1)C(N)=O)C(C)C` [N-acetylated/C-amidated PHVF] (Ac-PHVF-NH2), the inhibition at 100 µM under setting [3] was determined as 12%.

With `CC(=O)N1CCC[C@H]1C(=O)N[C@@H](Cc1ccc(O)cc1)C(=O)N1CCC[C@H]1C(=O)N[C@@H](Cc1ccccc1)C(N)=O` [N-acetylated/C-amidated PYPF] (Ac-PYPF-NH2), the inhibition at 100 µM under setting [5] amounted to 28%.

`CC(=O)N1CCC[C@H]1C(=O)N[C@@H](Cc1ccc(O)cc1)C(=O)N[C@H](C(=O)N[C@@H](Cc1ccccc1)C(N)=O)C(C)C` [N-acetylated/C-amidated PYVF] (Ac-PYVF-NH2): under setting [3], the inhibition at 100 µM is 25%.

In the case of `CC(=O)N[C@H](C(=O)N[C@@H](Cc1c[nH]cn1)C(=O)N[C@H](C(=O)N[C@@H](Cc1ccccc1)C(N)=O)C(C)C)C(C)C` [N-acetylated/C-amidated VHVF] (Ac-VHVF-NH2), the inhibition at 10 µM under setting [2] was 4%. Moreover, the inhibition at 100 µM under setting [3] was found to be 21%.

Take `CC(=O)N[C@H](C(=O)N[C@@H](Cc1ccc(O)cc1)C(=O)N1CCC[C@H]1C(=O)N[C@@H](Cc1ccccc1)C(N)=O)C(C)C` [N-acetylated/C-amidated VYPF] (Ac-VYPF-NH2): under setting [5], the inhibition at 100 µM turned out to be 30%.

`O=C(O)[C@H](Cc1ccccc1)NC(=O)[C@@H]1CCCN1C(=O)[C@H](Cc1c[nH]cn1)NC(=O)[C@@H]1CCCN1` [PHPF] (H-PHPF-OH): the inhibition at 100 µM is, setting by setting: under setting [1], 78%; under setting [3], 81%. Moreover, under setting [2], the inhibition at 10 µM worked out at 20%.

On to `CC(C)[C@H](NC(=O)[C@H](Cc1c[nH]cn1)NC(=O)[C@@H]1CCCN1)C(=O)N[C@@H](Cc1ccccc1)C(=O)O` [PHVF] (H-PHVF-OH), for which the inhibition at 100 µM under setting [4] is 93% and the inhibition at 100 µM under setting [3] amounted to 93%. Under setting [2], the inhibition at 10 µM was found to be 49%.

Consider `O=C(O)[C@H](Cc1ccccc1)NC(=O)[C@@H]1CCCN1C(=O)[C@H](Cc1ccc(O)cc1)NC(=O)[C@@H]1CCCN1` [PYPF] (H-PYPF-OH), for which the inhibition at 100 µM by setting is: under setting [6], 93%; under setting [5], 93%. Moreover, the inhibition at 10 µM (pH 6.5, read-out: ACE2 inhibition of terminally modified IHPF analogs, 10 μM (Table 3, in brackets)) worked out at 50%.

`CC(C)[C@H](NC(=O)[C@H](Cc1ccc(O)cc1)NC(=O)[C@@H]1CCCN1)C(=O)N[C@@H](Cc1ccccc1)C(=O)O` [PYVF] (H-PYVF-OH): the inhibition at 100 µM was found to be 94% under setting [4] and 94% under setting [3]. Also, under setting [2], the inhibition at 10 µM amounted to 51%.

With `CC(C)[C@H](N)C(=O)N[C@@H](Cc1c[nH]cn1)C(=O)N1CCC[C@H]1C(=O)N[C@@H](Cc1ccccc1)C(=O)O` [VHPF] (H-VHPF-OH), the inhibition at 100 µM under setting [1] was found to be 78% and the inhibition at 100 µM under setting [4] turned out to be 78%.

For the compound `CC(C)[C@H](N)C(=O)N[C@@H](Cc1c[nH]cn1)C(=O)N[C@H](C(=O)N[C@@H](Cc1ccccc1)C(=O)O)C(C)C` [VHVF] (H-VHVF-OH), the inhibition at 100 µM stood at 85% under setting [4] and 85% under setting [3]. In addition, the inhibition at 10 µM under setting [2] amounted to 37%.

Take `CC(C)[C@H](N)C(=O)N[C@@H](Cc1ccc(O)cc1)C(=O)N1CCC[C@H]1C(=O)N[C@@H](Cc1ccccc1)C(=O)O` [VYPF] (H-VYPF-OH): the inhibition at 100 µM under setting [6] is 90%.

Take `CC(C)[C@H](N)C(=O)N[C@@H](Cc1ccc(O)cc1)C(=O)N[C@H](C(=O)N[C@@H](Cc1ccccc1)C(=O)O)C(C)C` [VYVF] (H-VYVF-OH): the inhibition at 100 µM under setting [4] came to 78%.

Take `N[C@@H](Cc1c[nH]c2ccccc12)C(=O)N[C@@H](Cc1c[nH]cn1)C(=O)N1CCC[C@H]1C(=O)N[C@@H](Cc1ccccc1)C(=O)O` [WHPF] (H-WHPF-OH): the inhibition at 100 µM under setting [1] came out at 0%.

Take `N[C@@H](Cc1ccc(O)cc1)C(=O)N[C@@H](Cc1c[nH]cn1)C(=O)N1CCC[C@H]1C(=O)N[C@@H](Cc1ccccc1)C(=O)O` [YHPF] (H-YHPF-OH): under setting [1], the inhibition at 100 µM was found to be 34%.

One may read the inhibition as the relative decrease from the control value, in per cent.

The values above are taken from paper PMC4311625, “Structural determinants for binding to angiotensin converting enzyme 2 (ACE2) and angiotensin receptors 1 and 2” (Frontiers in Pharmacology, 2015).
